Calls of active or inactive are those of the source. Unless noted, no cut-off for these calls is given here.
Tests used:
[1] = tested on: Klebsiella pneumoniae; assay: Antibacterial activity against Klebsiella pneumoniae at 250 ug/ml after 24 to 45 hrs by disc diffusion method; format: functional; conditions: read-out: IZ
[2] = tested on: Pseudomonas; assay: Antibacterial activity against Pseudomonas at 250 ug/ml after 24 to 45 hrs by disc diffusion method; format: functional; conditions: read-out: IZ
[3] = tested on: Escherichia coli; assay: Antibacterial activity against Escherichia coli at 250 ug/ml after 24 to 45 hrs by disc diffusion method; format: functional; conditions: read-out: IZ
[4] = tested on: Staphylococcus aureus; assay: Antibacterial activity against Staphylococcus aureus at 250 ug/ml after 24 to 45 hrs by disc diffusion method; format: functional; conditions: read-out: IZ
[5] = tested on: Enterococcus faecalis; assay: Antibacterial activity against Enterococcus faecalis at 250 ug/ml after 24 to 45 hrs by disc diffusion method; format: functional
[6] = tested on: Achaea janata; assay: Antifeedant activity against fourth instar larvae of Achaea janata fed on compound treated castor leaves at 150 ppm after 24 hrs by leaf disc method; format: functional, organism-based
[7] = tested on: Penicillium; assay: Antifungal activity against Penicillium at 50 ug/ml after 72 hrs by disc diffusion method; format: functional, organism-based
[8] = tested on: Achaea janata; assay: Antifeedant activity against fourth instar larvae of Achaea janata fed on compound treated castor leaves at 200 ppm after 24 hrs by leaf disc method; format: functional, organism-based
[9] = tested on: Candida albicans; assay: Antifungal activity against Candida albicans at 250 ug/ml after 72 hrs by disc diffusion method; format: functional
[10] = tested on: Aspergillus niger; assay: Antifungal activity against Aspergillus niger at 50 ug/ml after 72 hrs by disc diffusion method; format: functional, organism-based
[11] = tested on: Proteus vulgaris; assay: Antibacterial activity against Proteus vulgaris at 250 ug/ml after 24 to 45 hrs by disc diffusion method; format: functional; conditions: read-out: IZ

Compound: FC(F)(F)c1ccc2c(c1)CN1CN2Cc2cc(C(F)(F)F)ccc21
- zone of inhibition at 250 µg/mL [1]: 13 mm
- zone of inhibition at 250 µg/mL [2]: 13 mm
- zone of inhibition at 250 µg/mL [3]: 13 mm
- zone of inhibition at 250 µg/mL [4]: 13 mm
- Activity [5]: inactive
- Activity [6]: Active
- Activity [7]: inactive
- Activity [8]: Active
- Activity [9]: inactive
- Activity [10]: inactive
- zone of inhibition at 250 µg/mL [11]: 13 mm

Compound: Fc1cc2c(cc1Cl)N1Cc3cc(F)c(Cl)cc3N(C2)C1
- zone of inhibition at 250 µg/mL [1]: 13 mm
- zone of inhibition at 250 µg/mL [2]: 13 mm
- zone of inhibition at 250 µg/mL [3]: 13 mm
- zone of inhibition at 250 µg/mL [4]: 13 mm
- Activity [5]: inactive
- Activity [6]: Active
- Activity [7]: Active
- Activity [8]: Active
- zone of inhibition at 250 µg/mL ([9]; read-out: IZ): 13 mm
- Activity [10]: inactive
- zone of inhibition at 250 µg/mL [11]: 13 mm
